Laboratory results taken from PMC5046141, “Discovery of Isoquinolinoquinazolinones as a Novel Class of Potent PPARγ Antagonists with Anti-adipogenic Effects” (Scientific Reports, 2016).

What was measured:
[1] = biological target: T1, C285G mutant PPARγ2 (Mus musculus, UniProt P37238, C313G); assay: PPRE-Luc reporter assay with C285G mutant PPARγ2 in 3T3-L1 cells; type: cell-based; details: 5 μM, 12 h
T1 construct: expressed in transfected cells; host or cells: 3T3-L1, pCS4 CMV vector
T1 sequence (P37238 1-505 C313G): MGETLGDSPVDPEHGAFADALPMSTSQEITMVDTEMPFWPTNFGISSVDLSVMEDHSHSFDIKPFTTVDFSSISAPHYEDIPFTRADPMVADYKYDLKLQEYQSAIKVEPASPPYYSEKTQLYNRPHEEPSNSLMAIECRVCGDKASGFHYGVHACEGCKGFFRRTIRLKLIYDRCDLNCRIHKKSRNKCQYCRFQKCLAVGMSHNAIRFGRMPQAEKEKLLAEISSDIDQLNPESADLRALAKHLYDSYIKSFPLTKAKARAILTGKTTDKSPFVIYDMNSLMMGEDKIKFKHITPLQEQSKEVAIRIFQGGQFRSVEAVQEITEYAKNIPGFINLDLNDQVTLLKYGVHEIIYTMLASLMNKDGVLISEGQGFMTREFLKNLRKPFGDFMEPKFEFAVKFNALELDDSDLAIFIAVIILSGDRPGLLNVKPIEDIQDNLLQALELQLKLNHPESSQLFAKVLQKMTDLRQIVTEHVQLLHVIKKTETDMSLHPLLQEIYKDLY
T1 sequence (P28700 1-467 partner): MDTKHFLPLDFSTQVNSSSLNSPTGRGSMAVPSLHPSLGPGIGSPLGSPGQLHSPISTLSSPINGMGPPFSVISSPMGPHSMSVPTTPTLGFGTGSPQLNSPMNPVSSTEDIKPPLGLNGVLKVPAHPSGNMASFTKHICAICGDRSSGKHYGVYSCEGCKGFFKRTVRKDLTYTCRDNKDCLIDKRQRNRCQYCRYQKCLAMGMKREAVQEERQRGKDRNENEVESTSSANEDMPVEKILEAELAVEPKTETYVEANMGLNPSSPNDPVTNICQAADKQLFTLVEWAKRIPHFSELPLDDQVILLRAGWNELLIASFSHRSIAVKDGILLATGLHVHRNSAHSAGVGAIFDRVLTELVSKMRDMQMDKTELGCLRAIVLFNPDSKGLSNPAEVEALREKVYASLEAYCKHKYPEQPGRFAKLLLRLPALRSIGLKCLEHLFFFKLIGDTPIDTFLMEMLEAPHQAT
Protocol: To investigate the contribution site on the PPARγ2 to the interaction with 8o, we generated mutant forms of the PPARγ2 (Fig. 5). […] Thus, we tested Cys-to-Gly (Cys285), Arg-to-Gly (Arg288) substitution mutants of PPARγ2. […] The results indicated 8o has interaction with both Cys285 and Arg288, which are in agreement with the docking study.
Figure 5 Mutational study. Residues Cys285 and Arg288 of PPARγ are important for 8o function. The transcriptional activity was determined in 3T3-L1 cells transiently co-transfected with PPRE-driven luciferase reporter gene (PPRE-Luc) and PPARγ2 (WT) or (C285G, R288G) expression vector. After 24 h of transfection, the cells were cultured with 5 μM GW9662 and 5 μM 8o respectively for 12 h. Luciferase activity was measured after 36 h. Error bars mean ± SD of at least three experiments. ^*P < 0.05, ^**P < 0.01.
For plasmids expressing PPARγ2, full length PPARγ2 (mouse, 1518 bp: NCBI Reference Sequence: NP_035276.2) was subcloned into CMV promoter-derived mammalian expression vector (pCS4). […]
3T3-L1 cells were transfected for indicated combinations of expression plasmids along with a luciferase reporter plasmid (PPRE-Luc). […] Luciferase activities were measured using a luciferase reporter assay kit (Promega, Madison, WI, USA). […]

SMILES | effect of Cys285 to Gly substitution on the compound's inhibition of PPARγ2 activity [1] | melting point
COc1cc2cc3n(c(=O)c2cc1OC)CNc1cc(Cl)ccc1-3 [Compound 8o, 3-Chloro-10,11-dimethoxy-5H-isoquinolino[2,3-c]quinazolin-8(6H)-one] | abolished the inhibitory effect | 228.7 to 230.5 °C
O=C(Nc1ccccc1)c1cc([N+](=O)[O-])ccc1Cl [GW9662, reference compound] | abolished the inhibitory effect | –
COc1cc2cc3n(c(=O)c2cc1OC)CNc1ccc(Cl)cc1-3 [Compound 8n, 2-Chloro-10,11-dimethoxy-5H-isoquinolino[2,3-c]quinazolin-8(6H)-one] | – | 193.5 to 194.6 °C
